Measured values as given in ChEMBL document CHEMBL5390233, “Design, synthesis and biological evaluation of 2-aminopyrimidine derivatives as potent FLT3 inhibitors” (Bioorg Med Chem Lett, 2023).

Assays:
[1] = tested on: MM1.S; experiment: Antiproliferative activity against human MM1.S cells assessed as inhibition of cell growth; format: functional, cell-based
[2] = tested on: BaF3; experiment: Antiproliferative activity against mouse BaF3 cells harboring FLT3-ITD-D835Y mutant assessed as inhibition of cell growth; format: functional, cell-based
[3] = tested on: BaF3; experiment: Antiproliferative activity against mouse BaF3 cells harboring FLT3-ITD mutant assessed as inhibition of cell growth; format: functional, cell-based
[4] = tested on: MCF7; experiment: Antiproliferative activity against human MCF7 cells assessed as inhibition of cell growth; format: functional, cell-based
[5] = tested on: BaF3; experiment: Antiproliferative activity against mouse BaF3 cells harboring FLT3-D835V mutant assessed as inhibition of cell growth; format: functional, cell-based
[6] = tested on: MV4-11; experiment: Antiproliferative activity against human MV4-11 cells assessed as inhibition of cell growth; format: functional, cell-based
[7] = tested on: BaF3; experiment: Antiproliferative activity against mouse BaF3 cells harboring FLT3-F691L mutant assessed as inhibition of cell growth; format: functional, cell-based
[8] = tested on: BaF3; experiment: Antiproliferative activity against mouse BaF3 cells harboring FLT3-D835F mutant assessed as inhibition of cell growth; format: functional, cell-based
[9] = tested on: MOLM-13; experiment: Antiproliferative activity against human MOLM-13 cells assessed as inhibition of cell growth; format: functional, cell-based
[10] = tested on: HeLa; experiment: Antiproliferative activity against human HeLa cells assessed as inhibition of cell growth; format: functional, cell-based
[11] = Antiproliferative activity against human PBMC cells assessed as inhibition of cell growth; format: toxicity, cell-based
[12] = molecular target: Receptor-type tyrosine-protein kinase FLT3 (Homo sapiens, UniProt P36888, D835Y); experiment: Inhibition of FLT3 D835Y mutant (unknown origin)
[13] = molecular target: T1, Receptor-type tyrosine-protein kinase FLT3 (Homo sapiens, UniProt P36888); experiment: Inhibition of wild type FLT3 (unknown origin)
T1 sequence (P36888 whole entry): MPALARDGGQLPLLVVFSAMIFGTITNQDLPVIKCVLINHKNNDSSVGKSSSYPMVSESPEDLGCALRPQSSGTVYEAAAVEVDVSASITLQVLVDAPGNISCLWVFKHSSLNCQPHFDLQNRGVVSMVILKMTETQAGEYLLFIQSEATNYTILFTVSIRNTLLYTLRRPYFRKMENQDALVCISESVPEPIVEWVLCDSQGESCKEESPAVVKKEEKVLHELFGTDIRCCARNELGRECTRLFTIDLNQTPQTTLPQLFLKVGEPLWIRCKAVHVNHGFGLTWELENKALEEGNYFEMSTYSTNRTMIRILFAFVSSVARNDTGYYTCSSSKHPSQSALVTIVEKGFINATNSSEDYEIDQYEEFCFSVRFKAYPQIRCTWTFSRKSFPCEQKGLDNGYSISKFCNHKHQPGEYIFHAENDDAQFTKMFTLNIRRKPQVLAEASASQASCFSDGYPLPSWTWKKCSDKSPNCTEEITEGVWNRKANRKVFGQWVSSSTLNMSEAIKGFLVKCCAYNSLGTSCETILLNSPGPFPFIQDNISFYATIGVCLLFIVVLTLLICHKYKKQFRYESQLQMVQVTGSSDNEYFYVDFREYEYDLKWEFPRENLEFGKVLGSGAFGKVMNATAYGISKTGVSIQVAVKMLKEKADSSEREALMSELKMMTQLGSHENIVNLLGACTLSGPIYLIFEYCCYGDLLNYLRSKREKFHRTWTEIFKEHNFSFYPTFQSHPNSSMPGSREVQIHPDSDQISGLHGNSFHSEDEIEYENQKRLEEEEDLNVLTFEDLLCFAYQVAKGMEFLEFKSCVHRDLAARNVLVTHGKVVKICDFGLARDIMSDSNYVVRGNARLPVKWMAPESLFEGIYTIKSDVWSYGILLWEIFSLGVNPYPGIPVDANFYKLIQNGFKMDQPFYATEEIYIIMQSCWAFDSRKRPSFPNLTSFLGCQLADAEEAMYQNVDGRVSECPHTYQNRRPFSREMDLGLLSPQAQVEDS

SMILES	IC50 ([6]; mv4-11) [nM]	IC50 [12] [nM]	IC50 [13] [nM]	further results
CC1(COc2ccc(Nc3ncc(C(F)(F)F)c(N[C@H]4CC[C@@H](N)CC4)n3)cc2)COC1	0.83	9.21	7.42	IC50 ([1]; mm1.s): 2250 nM; IC50 ([2]; baf3): 0.95 nM; IC50 ([3]; baf3): 0.91 nM; IC50 ([4]; mcf7): 4980 nM; IC50 ([5]; baf3): 0.98 nM; IC50 ([7]; baf3): 4.2 nM; IC50 ([8]; baf3): 0.94 nM; IC50 [9]: 10.6 nM; IC50 ([10]; hela): 5780 nM; IC50 [11]: 7860 nM
CC1(COc2ccc(Nc3ncc(C(F)(F)F)c(NC4CCNCC4)n3)cc2)COC1	–	41.7	28.9	–
CC1(COc2ccc(Nc3ncc(C(F)(F)F)c(N4CCC(N)CC4)n3)cc2)COC1	–	350	138	–
CC1(COc2ccc(Nc3ncc(C(F)(F)F)c(N4CCOCC4)n3)cc2)COC1	–	380	339	–
CC1(COc2ccc(Nc3ncc(C(F)(F)F)c(N4CCC(O)CC4)n3)cc2)COC1	–	142	86	–
CN1CCN(c2nc(Nc3ccc(OCC4(C)COC4)cc3)ncc2C(F)(F)F)CC1	–	686	339	–
CC1(COc2ccc(Nc3ncc(C(F)(F)F)c(N[C@H]4CC[C@H](O)CC4)n3)cc2)COC1	–	64.6	29.6	IC50 ([6]; Homo sapiens, MV4-11): 7.58 nM
CC1(COc2cccc(Nc3ncc(C(F)(F)F)c(NC4CCNCC4)n3)c2)COC1	–	68.7	32.1	–
CC1(COc2ccc(Nc3ncc(C(F)(F)F)c(N4CCNCC4)n3)cc2)COC1	–	351	231	–
CC1(COc2ccc(Nc3ncc(C(F)(F)F)c(N[C@@H]4CCCNC4)n3)cc2)COC1	9.74	25.9	14.3	–
CC1(COc2ccc(Nc3ncc(C(F)(F)F)c(N[C@H]4CC[C@@H](O)CC4)n3)cc2)COC1	–	9.79	9.46	IC50 ([6]; Homo sapiens, MV4-11): 42.9 nM
CC1(COc2cccc(Nc3ncc(C(F)(F)F)c(N[C@@H]4CCCNC4)n3)c2)COC1	17.3	24.3	16.5	–
CC1(COc2ccc(Nc3ncc(C(F)(F)F)c(NCC4CCNCC4)n3)cc2)COC1	–	40.8	32.4	–
CC1(COc2cccc(Nc3ncc(C(F)(F)F)c(NCC4CCNCC4)n3)c2)COC1	6.93	22.4	11	–
CC1(COc2ccc(Nc3ncc(C(F)(F)F)c(N[C@H]4CC[C@H](N)CC4)n3)cc2)COC1	26.4	27.5	29.9	–
CCc1nc(C(N)=O)c(Nc2ccc(N3CCC(N4CCN(C)CC4)CC3)c(OC)c2)nc1NC1CCOCC1 [GILTERITINIB]	–	–	–	IC50 ([1]; Homo sapiens, MM1.S): 203 nM; IC50 ([2]; Mus musculus, BaF3): 0.48 nM; IC50 ([3]; Mus musculus, BaF3): 0.6 nM; IC50 ([4]; Homo sapiens, MCF7): 1300 nM; IC50 ([5]; Mus musculus, BaF3): 0.62 nM; IC50 ([6]; Homo sapiens, MV4-11): 1.34 nM; IC50 ([7]; Mus musculus, BaF3): 1.05 nM; IC50 ([8]; Mus musculus, BaF3): 0.66 nM; IC50 ([10]; Homo sapiens, HeLa): 3200 nM; IC50 [11]: 7030 nM
